Calls of active or inactive are those of the source.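 How the source made its calls: active means EC50 at or below 10 micromolar, taken from the curve fit or judged by hand from the single doses; inactive means EC50 above 10 micromolar.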

Broadly, the EC50 is the concentration that produces a half-maximal response.

The test concerns the target CHO S1P3/Ga15 NFAT-beta-lactamase reporter, FRET fluorescence. The test can be described thus: S1P3 reporter-cell activation, dose response, counter-screen for 5HT1E agonist project (AID 730). Background: The purpose of a counterscreen is to sort out artefacts and off-target activity.
With `Cn1cc(/C(Cc2ccccc2)=N\O)c2ccccc21`, the EC50 was > 40 µM (inactive).
As for `CCOC(=O)C1=C(C)NC(=O)NC1c1ccc(OCC(=O)Nc2ccccc2)c(OC)c1` (stereo not drawn), the EC50 is > 40 µM (inactive).
In the case of `CN1CCN(/C(=N\O)c2nonc2N)CC1`, the EC50 is > 40 µM (inactive).

The values above are taken from PubChem BioAssay AID730 (The Scripps Research Institute Molecular Screening Center, 2007).
